From patent CN101016265A, “一种新型hiv-1逆转录酶抑制剂的制备及其用途” (Capital Medical University, priority 2007, dated 2007)

Target: T1, HIV-1 reverse transcriptase (HIV-1逆转录酶) (Human immunodeficiency virus type 1 group M subtype B, UniProt P03366)
T1 construct: HIV-1逆转录酶HIV-1 RT为基因工程重组酶
Assay: HIV-1 RT activity assay (oligo(dT)15-coated 96-well plate, poly(A) template, biotin-11-dUTP / SA-ALP / PNPP, 405 nm)
Type: biochemical
Details: relative to nevirapine (NVP); range stated for the six compounds together

In the case of `O=c1[nH]c(=O)n(COCc2ccccc2)c(Cc2ccccc2)c1I` [化合物5, 1-苄氧甲基-5-碘-6-苄基尿嘧啶], the “activity higher than that of nevirapine (NVP)” value (“activity higher than that” for short) is reported as 3.6-627 fold.
In the case of `CCOCn1c(Cc2ccccc2)c(Br)c(=O)[nH]c1=O` [化合物9, 1-乙氧甲基-5-溴-6-苄基尿嘧啶], the “activity higher than that” value is reported as 3.6-627 fold.
With `CN(C)c1c(Cc2ccccc2)n(COCc2ccccc2)c(=O)[nH]c1=O` [化合物7, 1-苄氧甲基-5-N,N-二甲基氨基-6-苄基尿嘧啶] the “activity higher than that” value was 3.6-627 fold.
`CCOCn1c(Cc2ccccc2)c(N(C)C)c(=O)[nH]c1=O` [化合物10, 1-乙氧甲基-5-N,N-二甲基氨基-6-苄基尿嘧啶] was tested, and the “activity higher than that” value was 3.6-627 fold.
`CCOCn1c(Cc2ccccc2)c(I)c(=O)[nH]c1=O` [化合物8, 1-乙氧甲基-5-碘-6-苄基尿嘧啶] was tested, and the “activity higher than that” value was 3.6-627 fold.
In the case of `O=c1[nH]c(=O)n(COCc2ccccc2)c(Cc2ccccc2)c1Br` [化合物6, 1-苄氧甲基-5-溴-6-苄基尿嘧啶], the “activity higher than that” value is reported as 3.6-627 fold.
